Among the data in PubChem BioAssay (NCI) are GI50 and TGI values, retold here.

Test systems include HCT-116 colon; OVCAR-8 ovarian; SK-MEL-28 melanoma; SNB-75 CNS; SR leukemia; SW-620 colon; TK-10 renal; U251 CNS; UACC-257 melanoma; UO-31 renal.
What all share (assay): NCI-60 cell line screen, 48 h

Each structure is given as a SMILES string.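 Results reflect a 48-hour exposure of cells in 96-well plates to compound at five concentrations. At the GI50, growth is halved. TGI is the concentration that stops growth completely.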

`COc1cc2cc(Oc3ccc(NC(=O)Nc4ccccc4)cc3)c(C)nc2cc1OCCN1CCCCC1`: the GI50 is 4.77 µM in the assay with HCT-116 colon; 6.26 µM with OVCAR-8 ovarian; 5.41 µM with SK-MEL-28 melanoma; 3.76 µM in the assay with SNB-75 CNS; 0.934 µM in the assay with SR leukemia; 6.09 µM with SW-620 colon. Besides, the GI50 in the assay on TK-10 renal was 8.3 µM; in the assay with U251 CNS, 5.32 µM; with UACC-257 melanoma it was 6.46 µM; in the assay on UO-31 renal, 3.87 µM. Also, the TGI is 10.1 µM with HCT-116 colon; 15.3 µM in the assay with OVCAR-8 ovarian; 9.92 µM in the assay with SK-MEL-28 melanoma; 8.74 µM in the assay with SNB-75 CNS; 2.66 µM in the assay on SR leukemia; 11.9 µM in the assay on SW-620 colon. For the same compound, the TGI turned out to be 17.3 µM in the assay with TK-10 renal, 11.4 µM with U251 CNS, 12.4 µM in the assay on UACC-257 melanoma and 7.94 µM in the assay with UO-31 renal.

For the compound `CCc1cccc(CC)c1NC(=S)NC(=O)c1ccc(Br)cc1`, the TGI is more than 100 µM in the assay with HCT-116 colon; more than 100 µM with OVCAR-8 ovarian; more than 100 µM with SK-MEL-28 melanoma; more than 96.6 µM in the assay with SNB-75 CNS; 66.3 µM with SR leukemia; more than 100 µM in the assay on SW-620 colon. For the same compound, the TGI with TK-10 renal is more than 64.1 µM; in the assay with U251 CNS it was more than 100 µM; with UACC-257 melanoma, more than 100 µM; in the assay with UO-31 renal, more than 100 µM.

With `COc1ccc(C2NCCc3c2[nH]c2ccccc32)cc1CN1CCN(c2ccc(F)cc2)CC1` (configuration not stated), the GI50 was 1.62 µM in the assay on HCT-116 colon; 1.89 µM with OVCAR-8 ovarian; 1.61 µM with SK-MEL-28 melanoma; 1.25 µM with SNB-75 CNS; 1.78 µM in the assay with SR leukemia; 1.74 µM in the assay on SW-620 colon. Moreover, the GI50 was 3.2 µM in the assay with TK-10 renal, 1.56 µM in the assay on U251 CNS, 1.76 µM in the assay on UACC-257 melanoma and 1.57 µM in the assay with UO-31 renal. Also, the TGI turned out to be 3 µM in the assay on HCT-116 colon; 3.95 µM in the assay on OVCAR-8 ovarian; 3.05 µM in the assay with SK-MEL-28 melanoma; 2.52 µM with SNB-75 CNS; 5.28 µM with SR leukemia; 3.33 µM in the assay on SW-620 colon. Further, the TGI was found to be 9.65 µM in the assay with TK-10 renal, 2.93 µM with U251 CNS, 3.26 µM with UACC-257 melanoma and 4.12 µM in the assay on UO-31 renal.

In the case of `COc1cc2c3c(n(CCN)c(=O)c2cc1OC)-c1cc2c(cc1C3=O)OCO2`, the GI50 in the assay with HCT-116 colon was 0.0521 µM; with OVCAR-8 ovarian, 1.12 µM; in the assay on SK-MEL-28 melanoma, 1.55 µM; in the assay with SNB-75 CNS it was 0.143 µM; in the assay with SR leukemia it was 1.56 µM; in the assay on SW-620 colon it was 0.0383 µM. The GI50 in the assay with TK-10 renal is 1.79 µM; in the assay with U251 CNS, 0.367 µM; with UACC-257 melanoma it was 3.84 µM; in the assay with UO-31 renal, 0.226 µM. The TGI in the assay on SK-MEL-28 melanoma is 3.44 µM; in the assay on SNB-75 CNS, 2.43 µM; in the assay with SR leukemia it was more than 100 µM; with SW-620 colon it was 2.29 µM; in the assay on TK-10 renal, 3.63 µM; with UACC-257 melanoma, 11.2 µM. The TGI in the assay with UO-31 renal stood at 1.91 µM.

For `Nc1nc2ccc([C@@H]3Nc4ccc5[nH]ncc5c4[C@H]4[C@H]5CCC(C5)[C@H]43)cc2s1`, the GI50 in the assay with HCT-116 colon was 0.488 µM; in the assay on OVCAR-8 ovarian it was 2.35 µM; in the assay with SK-MEL-28 melanoma it was 1.36 µM; in the assay with SNB-75 CNS, 0.319 µM; with SR leukemia it was 0.336 µM; in the assay on SW-620 colon it was 0.474 µM. The GI50 was 2.73 µM in the assay on TK-10 renal, 1.18 µM with U251 CNS, 2.12 µM in the assay with UACC-257 melanoma and 1.78 µM in the assay with UO-31 renal. For the same compound, the TGI turned out to be 1.84 µM in the assay with HCT-116 colon; 16.7 µM in the assay on OVCAR-8 ovarian; 4.29 µM in the assay with SK-MEL-28 melanoma; 2.47 µM in the assay with SNB-75 CNS; 2.72 µM with SR leukemia; 1.87 µM in the assay on SW-620 colon. The TGI with TK-10 renal was determined as 8.98 µM; with U251 CNS, 11.5 µM; with UACC-257 melanoma, 5.46 µM; in the assay with UO-31 renal it was 12.2 µM.

Take `CCOc1ccccc1NC(=O)CCc1nnc2s/c(=C\CCc3ccccc3)c(=O)n12`: the TGI in the assay with HCT-116 colon, in the assay on OVCAR-8 ovarian, in the assay on SK-MEL-28 melanoma, in the assay with SNB-75 CNS, in the assay on SR leukemia and in the assay with SW-620 colon was more than 100 µM in each case. Also, the TGI with TK-10 renal, in the assay on U251 CNS, in the assay with UACC-257 melanoma and in the assay with UO-31 renal was more than 100 µM each time.

With `Cc1cc(S(=O)(=O)Nc2nc3ccsc3c(=O)n2Cc2ccco2)c(S)cc1Cl`, the GI50 in the assay on HCT-116 colon is more than 100 µM; in the assay with OVCAR-8 ovarian it was more than 100 µM; in the assay on SK-MEL-28 melanoma, more than 100 µM; in the assay on SNB-75 CNS it was more than 100 µM; with SR leukemia it was 9.95 µM; in the assay on SW-620 colon, more than 100 µM. The GI50 in the assay with TK-10 renal is more than 100 µM; in the assay with U251 CNS, 96.3 µM; in the assay with UACC-257 melanoma it was more than 100 µM; in the assay with UO-31 renal, more than 100 µM. Besides, the TGI in the assay on HCT-116 colon is more than 100 µM; with OVCAR-8 ovarian it was more than 100 µM; in the assay with SK-MEL-28 melanoma it was more than 100 µM; with SNB-75 CNS it was more than 100 µM; in the assay on SR leukemia, 29.7 µM; in the assay on SW-620 colon, more than 100 µM. The TGI with TK-10 renal, with U251 CNS, with UACC-257 melanoma and in the assay on UO-31 renal was more than 100 µM in each case.

Consider `O=C([O-])c1ccc2c(c1)-c1nc-2nc2[n-]c(nc3nc(nc4[n-]c(n1)c1ccc(C(=O)[O-])cc41)-c1cc(C(=O)[O-])ccc1-3)c1ccc(C(=O)[O-])cc21.[Fe+2]`, for which the GI50 is 13.6 µM in the assay on HCT-116 colon; more than 50 µM in the assay on OVCAR-8 ovarian; more than 50 µM with SK-MEL-28 melanoma; 31.8 µM with SNB-75 CNS; 19 µM in the assay with SR leukemia; more than 21.7 µM with SW-620 colon. The GI50 in the assay on TK-10 renal is more than 50 µM; with U251 CNS it was more than 38.4 µM; in the assay on UACC-257 melanoma, more than 50 µM; in the assay on UO-31 renal it was more than 50 µM. In addition, the TGI in the assay on HCT-116 colon was 34.4 µM; in the assay with OVCAR-8 ovarian, more than 50 µM; in the assay with SK-MEL-28 melanoma it was more than 50 µM; with SNB-75 CNS it was more than 50 µM; in the assay on SR leukemia, more than 50 µM; with SW-620 colon it was more than 31.5 µM. Besides, the TGI in the assay with TK-10 renal, in the assay on U251 CNS, in the assay with UACC-257 melanoma and in the assay with UO-31 renal was more than 50 µM each time.
